Source: patent US20130137760A1, “GAMBOGIC AMINE, A SELECTIVE TRKA AGONIST WITH NEUROPROTECTIVE ACTIVITY” (EMORY UNIVERSITY, priority 2007, published 2013)

Columns and labels:
[1] = test system: T17 cells (TrkA stably transfected SN56 cells); assay: Cell-based apoptotic assay: protection of TrkA-expressing T17 cells from staurosporine-initiated apoptosis, MR(DEVD)2 caspase-3 dye; set-up: species or system murine; conditions: for apoptosis inhibitory activity in T17 cells: 0.5 μM pre-incubation, then 1 μM STS for 9 h, compared with NGF
Text: In order to identify small molecules that mimic NGF and activate TrkA, we developed a cell-based apoptotic assay using a cell permeable fluorescent dye MR([…])2, which turns red upon caspase-3 cleavage in apoptotic cells. We utilized a murine cell line T17, which was derived from basal forebrain SN56 cells. T17 cells are TrkA stably transfected SN56 cells. The candidates selectively protecting T17 but not SN56 cells from the first round screen can then be subjected to neurite outgrowth assay for the secondary screen. The positive compounds can be analyzed for TrkA tyrosine phosphorylation, Akt and MAP kinases signaling cascade activation.
T17 cells can be cultured in 96-well plates and preincubated with 10 μM compounds for 30 min, followed by 1 μM staurosporine (STS) treatment for 9 h. MR(DEVD)2 can be introduced to the cells 1 h before examination under fluorescent microscope. The apoptotic cells are red, while live cells have no signal. […] Using the caspase-3-activated fluorescent dye as a visual assay, one can screen the gambogic amine compounds.
To compare the apoptosis inhibitory activity of various compounds, one can pre-incubate gambogic amines derivatives (0.5 μM) with T17 and SN56 cells, followed by 1 μM STS for 9 h. Quantitative analysis of the apoptosis inhibitory activities can determine whether the compounds protect SN56 cells from apoptosis.
T17 cells can be seeded in a 96-well plate at 10,000 cells/well in 100 μl complete medium. Cells can be incubated overnight, followed by 30 min pretreatment with 10 μM compounds in DMSO (10 mM stock concentration from The Spectrum Collection library). The cells can then be treated with 1 μM Staurosporine for 9 h. One h before the termination of the experiment, 10 μM MR(DEVD)2, a cell permeable caspase-3-activated fluorescent dye can be introduced. Cells can be fixed with 4% paraformaldehyde for 15 min. Cells can then be washed with PBS and incubated with 1 μg/ml of Hoechst 33342 for 10 min. Cover slides can then be washed with PBS, mounted, and examined using a fluorescence microscope.

hippocampus = assay: Kainic acid-elicited neuronal cell death in mouse brain (TUNEL, hippocampus); assay type: in vivo, C57BL/6 mice; conditions: KA alone, quantitative analysis of apoptosis
Text: Kainic acid (KA) is a potent agonist for the AMPA receptor. Peripheral injections of KA result in recurrent seizures and the subsequent degeneration of select populations of neurons in the hippocampus (Nadler et al., 1980; Schauwecker and Steward, 1997; Sperk et al., 1983). It has been shown that the activation of caspase-3 is a necessary component of KA-induced cell death (Faherty et al., 1999). To explore whether test compounds can block the neurotoxicity initiated by KA, the compounds can be subcutaneously injected (for example, at a concentration of 2 mg/kg) into C57BL/6 mice, followed by 25 mg/kg KA. In 5 days, the mice can be perfused and the brains cut to a thickness of 5 μm and mounted on slides.
Kainic acid (KA) is a potent agonist for the AMPA receptor. Peripheral injections of KA result in recurrent seizures and the subsequent degeneration of select populations of neurons in the hippocampus (Nadler et al., 1980; Schauwecker and Steward, 1997; Sperk et al., 1983). It has been shown that the activation of caspase-3 is a necessary component of KA-induced cell death (Faherty et al., 1999). To explore whether gambogic amines can block the neurotoxicity initiated by KA, one can subcutaneously inject 2 mg/kg of a gambogic amine into C57BL/6 mice, followed by 25 mg/kg KA. In 5 days, the mice can be perfused and the brains were cut to a thickness of 5 μm and mounted on slides. TUNEL staining can reveal whether KA provokes enormous apoptosis in the hippocampus, and whether this effect is substantially diminished by the gambogic amine.
Male C57BL/6 mice aged of 60 days can be injected subcutaneously (s.c.) with a single dose of either 30% ethanol in saline or KA (25 mg/kg) (Sigma, Mo.) or the gambogic amine (2 mg/kg) followed by KA. Animals can be continually monitored for 2 h for the onset of seizure activity. At 5 days following treatment, animals can be anesthetized and perfused with 4% paraformaldehyde in 0.1 M phosphate buffered saline. Brains can be removed, post-fixed overnight and processed for paraffin embedding. […]

TrkA = TrkA tyrosine phosphorylation in primary hippocampal neurons, anti-phospho-TrkA Y490 immunoblot; assay type: cell-based; conditions: 30 min
Text: NGF binds to receptor TrkA and elicits its dimerization and autophosphorylation on tyrosine residues. Numerous tyrosine residues on TrkA are phosphorylated upon NGF stimulation. For example, Y490 phosphorylation is required for Shc association and activation of MAP kinase signaling cascade. Y751 phosphorylation is essential for PI 3-kinase docking and activation. To evaluate whether gambogic amine compounds can also trigger TrkA tyrosine phosphorylation, one can treat primary hippocampal neurons with various drugs at 0.5 μM for 30 min. The cell lysates can be analyzed by immunoblotting with anti-phospho-TrkA Y490 antibody. […] To explore whether gambogic amines can trigger TrkA dimerization, one can cotransfect GFP-TrkA and HA-TrkA into HEK293 cells, and treat the cells with 0.5 μM gambogic amine for 30 min. Communoprecipitation assays can be used to determine whether gambogic amines provoke TrkA dimerization even more strongly than NGF. One can also evaluate whether the gambogic amines also elicit tyrosine phosphorylation in TrkA but not in TrkB or C receptors.

Akt = Akt activation in primary hippocampal neurons; assay type: cell-based
Experimental: (§1) NGF triggers PI 3-kinase/Akt and Ras/MAP Kinase signaling cascades activation through the TrkA receptor. […] The cell lysates can be analyzed by immunoblotting with anti-phospho-Erk1/2 and phospho-Akt-473 antibodies, respectively. […] One can also extend the assays into primary hippocampal neurons. […] Time course assay with hippocampal neurons can show whether gambogic amines (0.5 μM) elicit Akt phosphorylation after 5 min treatment, and whether Akt activation increases after 10 min and is sustained for 60 min. One can also determine whether the gambogic amines provoke Akt activation in a dose-dependent manner.

Erk1/2 and Akt = Erk1/2 and Akt phosphorylation in T17 cells, immunoblot; assay type: cell-based, murine; conditions: 30 min
Experimental: as §1

PC12 cells = assay: Neurite outgrowth in PC12 cells; assay type: cell-based; conditions: after 5 days of treatment
Experimental: One of most prominent neurotrophic effects of NGF is to trigger neurite outgrowth in neuronal cells and incur differentiation. […] The cell medium containing the compounds can be replenished every other day. […] The gambogic amine compounds can similarly be evaluated for their ability to induce evident neurite outgrowth in PC12 cells. Dose-dependent assays can reveal whether 10-50 nM of gambogic amines are sufficient to provoke substantial neurite sprouting in PC12 cells.

[2] = Kasibhatla et al., 2005; cited from earlier work

COC(=O)/C(C)=C\CC12OC(C)(C)C3CC(C=C4C(=O)c5c(OC)c6c(c(CC=C(C)C)c5OC431)OC(C)(CCC=C(C)C)C=C6)C2=O (centres unmarked) [dimethyl gambogate]
apoptosis inhibitory activity in T17 cells [1]: strongly suppress apoptosis in T17 cells with protective activities even stronger than NGF

C=C(C)[C@H]1CN[C@H](C(=O)O)[C@H]1CC(=O)O [KA, Kainic acid]
cell death in the CA1 region of the hippocampus (hippocampus; CA1 region): 47%
cell death in the CA3 region of the hippocampus (hippocampus; CA3 region): 57%

NGF: nerve growth factor, binds mainly TrkA; positive control, from Roche
TrkA phosphorylation (Y490) (TrkA): induces potent TrkA phosphorylation
Akt activation (Akt): evidently activates Akt
Erk1/2 and Akt phosphorylation (Erk1/2 and Akt): stimulates demonstrable Erk1/2 and Akt phosphorylation
red (apoptotic) cell numbers compared to DMSO control ([1]; positive control, 1 μM staurosporine for 9 h, MR(DEVD)2 dye): substantially decreases the red cell numbers
neurite sprouting in PC12 cells (PC12 cells): pronounced neurite sprouting

CC(C)=CCC[C@]1(C)C=Cc2c(O)c3c(c(CC=C(C)C)c2O1)O[C@]12C(=C[C@@H]4C[C@H]1C(C)(C)O[C@@]2(C/C=C(/C)C(=O)O)C4=O)C3=O [gambogic acid, Gambogic Acid]
apoptosis inhibitory activity in T17 cells [1]: strongly suppress apoptosis in T17 cells with protective activities even stronger than NGF
Kd of association with Transferrin [2]: 2.2 µM

CC(C)=CCCC1(C)C=Cc2c(O)c3c(c(CC=C(C)C)c2O1)OC12C(=CC4CC1C(C)(C)OC2(C/C=C(/C)C(=O)O)C4O)C3=O (centres unmarked) [dihydrogambogic acid]
apoptosis inhibitory activity in T17 cells [1]: strongly suppress apoptosis in T17 cells with protective activities even stronger than NGF
